Measured values reported in ChEMBL document CHEMBL2086297, “Reduced pulmonary surfactant interaction of daptomycin analogs via tryptophan replacement with alternative amino acids” (2012).
Values after ≈ are worked out from the molar mass of the structure shown.

How the values were obtained:
Type in all cases: functional
[1] = system: Streptococcus pneumoniae; test: Antibacterial activity against Streptococcus pneumoniae
[2] = system: Staphylococcus aureus; test: Antibacterial activity against methicillin-susceptible Staphylococcus aureus ATCC 29213 by broth microdilution method in presence of 5% pulmonary surfactant; details: ATCC 29213, Pulmonary surfactant
[3] = system: Staphylococcus aureus; test: Antibacterial activity against methicillin-susceptible Staphylococcus aureus ATCC 29213 grown on calcium supplemented Mueller-Hinton broth by broth microdilution method
[4] = system: Staphylococcus aureus; test: Antibacterial activity against methicillin-susceptible Staphylococcus aureus ATCC 29213 by broth microdilution method in presence of 1% pulmonary surfactant; details: ATCC 29213, Pulmonary surfactant
[5] = system: Staphylococcus aureus; test: Antibacterial activity against methicillin-susceptible Staphylococcus aureus ATCC 29213 by broth microdilution method in presence of 4% human serum albumin

MIC [2] [µg/mL]	MIC [3] [µg/mL]	MIC [4] [µg/mL]	MIC [5] [µg/mL]	SMILES	MIC90 [1] [µg/mL]
16	4 (≈ 2.46 µM)	4	8	CCCCCCCCCC(=O)N[C@@H](Cc1ccc(OCC)cc1)C(=O)N[C@@H](CC(N)=O)C(=O)N[C@@H](CC(=O)O)C(=O)N[C@@H]1C(=O)NCC(=O)N[C@@H](CCCN)C(=O)N[C@@H](CC(=O)O)C(=O)N[C@H](C)C(=O)N[C@@H](CC(=O)O)C(=O)NCC(=O)N[C@H](CO)C(=O)N[C@@H]([C@@H](C)CC(=O)O)C(=O)N[C@@H](CC(=O)c2ccccc2N)C(=O)O[C@@H]1C	
4	2 (≈ 1.24 µM)	2	8	CCCCCCCCCC(=O)N[C@@H](Cc1ccccc1OC)C(=O)N[C@@H](CC(N)=O)C(=O)N[C@@H](CC(=O)O)C(=O)N[C@@H]1C(=O)NCC(=O)N[C@@H](CCCN)C(=O)N[C@@H](CC(=O)O)C(=O)N[C@H](C)C(=O)N[C@@H](CC(=O)O)C(=O)NCC(=O)N[C@H](CO)C(=O)N[C@@H]([C@@H](C)CC(=O)O)C(=O)N[C@@H](CC(=O)c2ccccc2N)C(=O)O[C@@H]1C	
4	1 (≈ 0.606 µM)	4	32	CCCCCCCCCC(=O)N[C@@H](Cc1ccc(N2CCCC2)cc1)C(=O)N[C@@H](CC(N)=O)C(=O)N[C@@H](CC(=O)O)C(=O)N[C@@H]1C(=O)NCC(=O)N[C@@H](CCCN)C(=O)N[C@@H](CC(=O)O)C(=O)N[C@H](C)C(=O)N[C@@H](CC(=O)O)C(=O)NCC(=O)N[C@H](CO)C(=O)N[C@@H]([C@@H](C)CC(=O)O)C(=O)N[C@@H](CC(=O)c2ccccc2N)C(=O)O[C@@H]1C	
32	16 (≈ 10 µM)	16	32	CCCCCCCCCC(=O)N[C@@H](Cc1ccc(N)cc1)C(=O)N[C@@H](CC(N)=O)C(=O)N[C@@H](CC(=O)O)C(=O)N[C@@H]1C(=O)NCC(=O)N[C@@H](CCCN)C(=O)N[C@@H](CC(=O)O)C(=O)N[C@H](C)C(=O)N[C@@H](CC(=O)O)C(=O)NCC(=O)N[C@H](CO)C(=O)N[C@@H]([C@@H](C)CC(=O)O)C(=O)N[C@@H](CC(=O)c2ccccc2N)C(=O)O[C@@H]1C	
> 32	0.25 (≈ 0.153 µM)	16	1	CCCCCCCCCC(=O)N[C@@H](Cc1c[nH]c2ccc(F)cc12)C(=O)N[C@@H](CC(N)=O)C(=O)N[C@@H](CC(=O)O)C(=O)N[C@@H]1C(=O)NCC(=O)N[C@@H](CCCN)C(=O)N[C@@H](CC(=O)O)C(=O)N[C@H](C)C(=O)N[C@@H](CC(=O)O)C(=O)NCC(=O)N[C@H](CO)C(=O)N[C@@H]([C@@H](C)CC(=O)O)C(=O)N[C@@H](CC(=O)c2ccccc2N)C(=O)O[C@@H]1C	
16	16 (≈ 9.75 µM)	16	32	CCCCCCCCCC(=O)N[C@@H](Cc1ccc(OC)c(OC)c1)C(=O)N[C@@H](CC(N)=O)C(=O)N[C@@H](CC(=O)O)C(=O)N[C@@H]1C(=O)NCC(=O)N[C@@H](CCCN)C(=O)N[C@@H](CC(=O)O)C(=O)N[C@H](C)C(=O)N[C@@H](CC(=O)O)C(=O)NCC(=O)N[C@H](CO)C(=O)N[C@@H]([C@@H](C)CC(=O)O)C(=O)N[C@@H](CC(=O)c2ccccc2N)C(=O)O[C@@H]1C	
32	1 (≈ 0.627 µM)	8	4	CCCCCCCCCC(=O)N[C@@H](CCc1ccccc1)C(=O)N[C@@H](CC(N)=O)C(=O)N[C@@H](CC(=O)O)C(=O)N[C@@H]1C(=O)NCC(=O)N[C@@H](CCCN)C(=O)N[C@@H](CC(=O)O)C(=O)N[C@H](C)C(=O)N[C@@H](CC(=O)O)C(=O)NCC(=O)N[C@H](CO)C(=O)N[C@@H]([C@@H](C)CC(=O)O)C(=O)N[C@@H](CC(=O)c2ccccc2N)C(=O)O[C@@H]1C	
8	1 (≈ 0.627 µM)	2	8	CCCCCCCCCC(=O)N[C@@H](Cc1ccc(C)cc1)C(=O)N[C@@H](CC(N)=O)C(=O)N[C@@H](CC(=O)O)C(=O)N[C@@H]1C(=O)NCC(=O)N[C@@H](CCCN)C(=O)N[C@@H](CC(=O)O)C(=O)N[C@H](C)C(=O)N[C@@H](CC(=O)O)C(=O)NCC(=O)N[C@H](CO)C(=O)N[C@@H]([C@@H](C)CC(=O)O)C(=O)N[C@@H](CC(=O)c2ccccc2N)C(=O)O[C@@H]1C	

SMILES	MIC [2] [µg/mL]	MIC [3] [µg/mL]	MIC [4] [µg/mL]	MIC [5] [µg/mL]	MIC90 [1] [µg/mL]
CCCCCCCCCC(=O)N[C@@H](Cc1c[nH]c2ccccc12)C(=O)N[C@H](CC(N)=O)C(=O)N[C@@H](CC(=O)O)C(=O)N[C@@H]1C(=O)NCC(=O)N[C@@H](CCCN)C(=O)N[C@@H](CC(=O)O)C(=O)N[C@H](C)C(=O)N[C@@H](CC(=O)O)C(=O)NCC(=O)N[C@H](CO)C(=O)N[C@@H]([C@H](C)CC(=O)O)C(=O)N[C@@H](CC(=O)c2ccccc2N)C(=O)O[C@@H]1C	> 32	1 (≈ 0.617 µM)	16	2	0.06 (≈ 0.037 µM)
